{
  "source": "PubChem BioAssay (NCI)",
  "note": "Where “and” joins values, the source holds several entries; their conditions need not be identical. Equal entries are not always repeated.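 Each compound was tested at five concentrations against cells in 96-well plates for 48 hours. Abbreviation: GI50, concentration required for 50% inhibition of growth. At the TGI there is no net growth.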",
  "data": [
    {"test_system": "COLO 205 colon", "assay": "NCI tumour cell line growth inhibition, 48 h", "units": {"TGI": "µM"}, "values": [
      {"smiles": "O=C1NC(=S)NC(=O)C1C(c1ccccc1[N+](=O)[O-])C1C(=O)NC(=S)NC1=O", "TGI": "> 100"},
      {"smiles": "COc1cc([C@@H]2c3cc4c(cc3C[C@H]3COC(=O)[C@@H]32)OCO4)cc(OC)c1OC", "GI50": "0.00627 µM and 0.0092 µM", "TGI": 0.028},
      {"smiles": "C[C@]12CC/C(=N\\O)C=C1CC[C@@H]1[C@@H]2CC[C@]2(C)C(=N/O)/C(=C/c3cccnc3)C[C@@H]12", "TGI": 61.8},
      {"smiles": "Cc1cc(O)cc(O)c1N=Nc1ccc([N+](=O)[O-])cc1", "TGI": "> 100"},
      {"smiles": "C[C@@H]1C[C@H](O)[C@]2(O)O[C@@H]3C[C@@]4(C=O)[C@@H](CC=C5[C@@H]4CC[C@]4(C)[C@@H](C6=CC(=O)OC6)CC[C@]54O)C[C@H]3O[C@@H]2O1", "TGI": 1.94},
      {"smiles": "CC(C)(CO)N1C(=O)c2ccccc2C1(O)c1ccc(Cl)cc1", "note": "(stereo not drawn)", "TGI": "> 100"},
      {"smiles": "C=CCCCC12CCCc3cccc(c31)NC2=O", "note": "(stereo not drawn)", "TGI": 40.4},
      {"smiles": "COC1C=CC23c4cc5c(cc4C(O)OC2CN(C)C3C1)OCO5", "note": "(stereo not drawn)", "TGI": 2.99},
      {"smiles": "O=C(O[C@H](/C=C/c1ccccc1)P1(=O)N(Cc2ccccc2)[C@@H]2CCCC[C@H]2N1Cc1ccccc1)c1ccccc1", "TGI": 5.08},
      {"smiles": "O=C(O)CNC(=O)c1ccc([As](=O)(O)O)cc1", "TGI": "> 100"},
      {"smiles": "Cc1cccc(N(CCC#N)S(=O)(=O)c2ccccc2)c1", "TGI": "> 100"}
    ]},
    {"test_system": "MDA-MB-231 breast", "assay": "NCI tumour cell line growth inhibition, 48 h", "units": {"TGI": "µM"}, "values": [
      {"smiles": "COc1ccc(NC2Oc3cc4c(cc3C(c3cc(OC)c(OC)c(OC)c3)C2C)OCO4)cc1", "note": "(stereo not drawn)", "TGI": "> 57.4"},
      {"smiles": "Cc1ccc(C2=Nc3c(c(C)nn3-c3ccccc3)N=C(C(=O)O)C2)cc1", "TGI": "> 10"},
      {"smiles": "Cc1ccc(C(=O)Nc2ccc(CP(=O)(O)O)cc2)cc1NC(=O)c1cccc(NC(=O)Nc2cccc(C(=O)Nc3cc(C(=O)Nc4ccc(CP(=O)(O)O)cc4)ccc3C)c2)c1", "TGI": "> 100"},
      {"smiles": "CC(C)c1c(P(=O)(c2ccccc2)c2ccccc2)n(C)c2ccccc12", "TGI": "> 100"},
      {"smiles": "CC(C)/C(Cl)=N\\OC(=O)NNc1ccccc1", "TGI": "> 94.2"},
      {"smiles": "O=C(/C=C/c1cccs1)c1ccc(Cl)cc1", "TGI": "> 100"},
      {"smiles": "Cc1oc2nc(N(C)C)n3nnnc3c2c1C", "TGI": "> 100"},
      {"smiles": "CN(C)c1ccc(/C(Br)=C2\\OC(=O)c3ccccc32)cc1", "TGI": "> 100"},
      {"smiles": "c1ccc2c(c1)CCCN1CCc3ccccc3C21", "note": "(stereo not drawn)", "TGI": "> 100"},
      {"smiles": "CN1CCN(C(=S)N(C)C(=O)c2ccc(Cl)cc2)CC1", "TGI": "> 100"},
      {"smiles": "COc1cc2c(cc1OC)C(=O)/C(=C/c1cc(C)c(O)c(C)c1)C2", "TGI": "> 100"},
      {"smiles": "O=C1NC(=S)NC(=O)C1C(c1ccccc1[N+](=O)[O-])C1C(=O)NC(=S)NC1=O", "TGI": "> 100"},
      {"smiles": "C[C@]12CC/C(=N\\O)C=C1CC[C@@H]1[C@@H]2CC[C@]2(C)C(=N/O)/C(=C/c3cccnc3)C[C@@H]12", "TGI": 56.2},
      {"smiles": "Cc1cc(O)cc(O)c1N=Nc1ccc([N+](=O)[O-])cc1", "TGI": 47.4},
      {"smiles": "C[C@@H]1C[C@H](O)[C@]2(O)O[C@@H]3C[C@@]4(C=O)[C@@H](CC=C5[C@@H]4CC[C@]4(C)[C@@H](C6=CC(=O)OC6)CC[C@]54O)C[C@H]3O[C@@H]2O1", "TGI": 2.65},
      {"smiles": "CC(C)(CO)N1C(=O)c2ccccc2C1(O)c1ccc(Cl)cc1", "note": "(stereo not drawn)", "TGI": "> 100"},
      {"smiles": "O=C(O[C@H](/C=C/c1ccccc1)P1(=O)N(Cc2ccccc2)[C@@H]2CCCC[C@H]2N1Cc1ccccc1)c1ccccc1", "TGI": 21},
      {"smiles": "O=C(O)CNC(=O)c1ccc([As](=O)(O)O)cc1", "TGI": "> 100"},
      {"smiles": "Cc1cccc(N(CCC#N)S(=O)(=O)c2ccccc2)c1", "TGI": "> 100"}
    ]},
    {"test_system": "MDA-MB-435", "assay": "NCI tumour cell line growth inhibition, 48 h", "units": {"TGI": "µM"}, "values": [
      {"smiles": "COc1ccc(NC2Oc3cc4c(cc3C(c3cc(OC)c(OC)c(OC)c3)C2C)OCO4)cc1", "note": "(stereo not drawn)", "TGI": 0.565},
      {"smiles": "Cc1ccc(C2=Nc3c(c(C)nn3-c3ccccc3)N=C(C(=O)O)C2)cc1", "TGI": "> 10"},
      {"smiles": "Cc1ccc(C(=O)Nc2ccc(CP(=O)(O)O)cc2)cc1NC(=O)c1cccc(NC(=O)Nc2cccc(C(=O)Nc3cc(C(=O)Nc4ccc(CP(=O)(O)O)cc4)ccc3C)c2)c1", "TGI": "> 100"},
      {"smiles": "CC(C)c1c(P(=O)(c2ccccc2)c2ccccc2)n(C)c2ccccc12", "TGI": "> 100"},
      {"smiles": "CC(C)/C(Cl)=N\\OC(=O)NNc1ccccc1", "TGI": "> 100"},
      {"smiles": "Cc1oc2nc(N(C)C)n3nnnc3c2c1C", "TGI": "> 100"},
      {"smiles": "CN(C)c1ccc(/C(Br)=C2\\OC(=O)c3ccccc32)cc1", "TGI": "> 100"},
      {"smiles": "c1ccc2c(c1)CCCN1CCc3ccccc3C21", "note": "(stereo not drawn)", "TGI": 56.4},
      {"smiles": "CN1CCN(C(=S)N(C)C(=O)c2ccc(Cl)cc2)CC1", "TGI": "> 100"},
      {"smiles": "O=C(CCc1ccc(O)cc1)c1c(O)cc(O)cc1OC1OC(CO)C(O)C(O)C1O", "note": "(stereo not drawn)", "TGI": "> 100"},
      {"smiles": "COc1cccc(C2c3cc4c(cc3OC(N3CCCC3)C2C)OCO4)c1OC", "note": "(stereo not drawn)", "TGI": 14.3},
      {"smiles": "O=C1NC(=S)NC(=O)C1C(c1ccccc1[N+](=O)[O-])C1C(=O)NC(=S)NC1=O", "TGI": "> 100"},
      {"smiles": "C[C@]12CC/C(=N\\O)C=C1CC[C@@H]1[C@@H]2CC[C@]2(C)C(=N/O)/C(=C/c3cccnc3)C[C@@H]12", "TGI": 46.9},
      {"smiles": "Cc1cc(O)cc(O)c1N=Nc1ccc([N+](=O)[O-])cc1", "TGI": 42.4},
      {"smiles": "C[C@@H]1C[C@H](O)[C@]2(O)O[C@@H]3C[C@@]4(C=O)[C@@H](CC=C5[C@@H]4CC[C@]4(C)[C@@H](C6=CC(=O)OC6)CC[C@]54O)C[C@H]3O[C@@H]2O1", "TGI": 0.151},
      {"smiles": "CC(C)(CO)N1C(=O)c2ccccc2C1(O)c1ccc(Cl)cc1", "note": "(stereo not drawn)", "TGI": "> 100"},
      {"smiles": "O=C(O[C@H](/C=C/c1ccccc1)P1(=O)N(Cc2ccccc2)[C@@H]2CCCC[C@H]2N1Cc1ccccc1)c1ccccc1", "TGI": 96.3},
      {"smiles": "O=C(O)CNC(=O)c1ccc([As](=O)(O)O)cc1", "TGI": "> 100"},
      {"smiles": "Cc1cccc(N(CCC#N)S(=O)(=O)c2ccccc2)c1", "TGI": "> 100"}
    ]},
    {"test_system": "RXF 393 renal", "assay": "NCI tumour cell line growth inhibition, 48 h", "units": {"TGI": "µM"}, "values": [
      {"smiles": "COc1ccc(NC2Oc3cc4c(cc3C(c3cc(OC)c(OC)c(OC)c3)C2C)OCO4)cc1", "note": "(stereo not drawn)", "TGI": "> 100"},
      {"smiles": "Cc1ccc(C2=Nc3c(c(C)nn3-c3ccccc3)N=C(C(=O)O)C2)cc1", "TGI": "> 10"},
      {"smiles": "O=C(OCc1ccccc1)OOC(=O)OCc1ccccc1", "TGI": "> 100"},
      {"smiles": "Cc1ccc(C(=O)Nc2ccc(CP(=O)(O)O)cc2)cc1NC(=O)c1cccc(NC(=O)Nc2cccc(C(=O)Nc3cc(C(=O)Nc4ccc(CP(=O)(O)O)cc4)ccc3C)c2)c1", "TGI": "> 100"},
      {"smiles": "OCc1ccccc1C1CSCSC1", "TGI": "> 100"},
      {"smiles": "c1ccc(N=c2snc(-c3ccccc3)s2)cc1", "TGI": "> 100"},
      {"smiles": "CC(C)/C(Cl)=N\\OC(=O)NNc1ccccc1", "TGI": "> 100"},
      {"smiles": "Cc1oc2nc(N(C)C)n3nnnc3c2c1C", "TGI": "> 100"},
      {"smiles": "CN1CCN(C(=S)N(C)C(=O)c2ccc(Cl)cc2)CC1", "TGI": "> 100"},
      {"smiles": "CC(=O)Nc1ccc(Cl)c(Cl)c1", "TGI": "> 100"},
      {"smiles": "Cc1cc2cccc(Cl)c2nc1C(=O)c1ccccc1", "TGI": "> 100"},
      {"smiles": "COc1ccc(CNc2nc3ccc(C(F)(F)F)cc3nc2-c2ccccc2)cc1OC", "TGI": "> 100"},
      {"smiles": "CC(=O)CC(=O)c1cc2c(=O)oc(C)cc2oc1=O", "TGI": "> 37.5"},
      {"smiles": "COc1cc2c(cc1OC)C(=O)/C(=C/c1cc(C)c(O)c(C)c1)C2", "TGI": 0.439},
      {"smiles": "CC(C)=CC1C(C(=O)O)C1(C)C", "note": "(stereo not drawn)", "TGI": "> 750"},
      {"smiles": "O=C1NC(=S)NC(=O)C1C(c1ccccc1[N+](=O)[O-])C1C(=O)NC(=S)NC1=O", "TGI": "> 100"},
      {"smiles": "COc1cc([C@@H]2c3cc4c(cc3C[C@H]3COC(=O)[C@@H]32)OCO4)cc(OC)c1OC", "GI50": "0.00723 µM and 0.0157 µM", "TGI": "> 50"},
      {"smiles": "Cc1cc(O)cc(O)c1N=Nc1ccc([N+](=O)[O-])cc1", "TGI": 40.5},
      {"smiles": "CC(C)(CO)N1C(=O)c2ccccc2C1(O)c1ccc(Cl)cc1", "note": "(stereo not drawn)", "TGI": "> 100"},
      {"smiles": "C=CCCCC12CCCc3cccc(c31)NC2=O", "note": "(stereo not drawn)", "TGI": 42.8},
      {"smiles": "O=C(O)CNC(=O)c1ccc([As](=O)(O)O)cc1", "TGI": "> 100"}
    ]},
    {"test_system": "SF-268 CNS", "assay": "NCI tumour cell line growth inhibition, 48 h", "units": {"TGI": "µM"}, "values": [
      {"smiles": "COc1ccc(NC2Oc3cc4c(cc3C(c3cc(OC)c(OC)c(OC)c3)C2C)OCO4)cc1", "note": "(stereo not drawn)", "TGI": "> 100"},
      {"smiles": "Cc1ccc(C2=Nc3c(c(C)nn3-c3ccccc3)N=C(C(=O)O)C2)cc1", "TGI": "> 10"},
      {"smiles": "O=C(OCc1ccccc1)OOC(=O)OCc1ccccc1", "TGI": "> 100"},
      {"smiles": "Cc1ccc(C(=O)Nc2ccc(CP(=O)(O)O)cc2)cc1NC(=O)c1cccc(NC(=O)Nc2cccc(C(=O)Nc3cc(C(=O)Nc4ccc(CP(=O)(O)O)cc4)ccc3C)c2)c1", "TGI": "> 100"},
      {"smiles": "OCc1ccccc1C1CSCSC1", "TGI": "> 100"},
      {"smiles": "CC(C)c1c(P(=O)(c2ccccc2)c2ccccc2)n(C)c2ccccc12", "TGI": "> 100"}
    ]}
  ]
}
